According to patent US20240083879A1, “OXALAMIDE COMPOUNDS AND COMPOSITIONS FOR TREATING CONDITIONS ASSOCIATED WITH STING ACTIVITY” (IFM Due, Inc., priority 2021, published 2024):

Target: hSTING (Homo sapiens (Human), UniProt Q86WV6, G230A/R293Q/R71H)
Assay: STING reporter assay (luciferase) in THP1-Dual KO-IFNAR2 cells stimulated with 2'3'cGAMP
Type: cell-based
Settings: 15 μM 2'3'cGAMP, 24 h
Procedure: STING pathway activation by the compounds described herein was measured using THP1-Dual™ cells (KO-IFNAR2).
THP1-Dual™ KO-IFNAR2 Cells (obtained from invivogen) were maintained in RPMI, 10% FCS, 5 ml P/S, 2 mM L-glut, 10 mM Hepes, and 1 mM sodium pyruvate. Compounds were spotted in empty 384 well tissue culture plates (Greiner 781182) by Echo for a final concentration of 0.0017-100 μM. Cells were plated into the TC plates at 40 μL per well, 2×10E6 cells/mL. For activation with STING ligand, 2′3′cGAMP (MW 718.38, obtained from Invivogen), was prepared in Optimem media.
The following solutions were prepared for each 1×384 plate: • Solution A: 2 mL Optimem with one of the following stimuli: • 60 μL of 10 mM 2′3′cGAMP→150 μM stock • Solution B: 2 mL Optimem with 60 μL Lipofectamine 2000→Incubate 5 min at RT
2 mL of solution A and 2 ml Solution B was mixed and incubated for 20 min at room temperature (RT). 20 μL of transfection solution (A+B) was added on top of the plated cells, with a final 2′3′cGAMP concentration of 15 μM. The plates were then centrifuged immediately at 340 g for 1 minute, after which they were incubated at 37° C., 5% CO2, >98% humidity for 24 h. Luciferase reporter activity was then measured. EC50 values were calculated by using standard methods known in the art.
Luciferase reporter assay: 10 μL of supernatant from the assay was transferred to white 384-plate with flat bottom and squared wells. One pouch of QUANTI-Luc™ Plus was dissolved in 25 mL of water. 100 μL of QLC Stabilizer per 25 mL of QUANTI-Luc™ Plus solution was added. 50 μL of QUANTI-Luc™ Plus/QLC solution per well was then added. Luminescence was measured on a Platereader (e.g., Spectramax I3X (Molecular Devices GF3637001)).
Luciferase reporter activity was then measured. EC50 values were calculated by using standard methods known in the art.

hSTING, sequence (Q86WV6 whole entry R71H/G230A/R293Q): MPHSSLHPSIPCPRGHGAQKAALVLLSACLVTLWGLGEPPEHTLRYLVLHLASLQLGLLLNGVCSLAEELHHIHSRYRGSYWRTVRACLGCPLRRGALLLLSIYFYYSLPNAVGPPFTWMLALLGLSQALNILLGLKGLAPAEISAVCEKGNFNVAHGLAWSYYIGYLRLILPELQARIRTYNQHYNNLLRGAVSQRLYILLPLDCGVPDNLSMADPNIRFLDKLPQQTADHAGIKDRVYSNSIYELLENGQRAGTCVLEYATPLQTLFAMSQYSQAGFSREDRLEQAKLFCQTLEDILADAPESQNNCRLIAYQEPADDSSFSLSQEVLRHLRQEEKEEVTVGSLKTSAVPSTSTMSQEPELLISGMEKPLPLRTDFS

EC50 | Compound
200 to 1000 nM | CO[C@H]1C[C@H](NC(=O)C(=O)Nc2c[nH]c3ccc(-c4cnn(-c5ccc(C(F)(F)F)cc5)c4)cc23)C1 [Compound 101, N-[trans-3-methoxycyclobutyl]-N′-(5-[1-[4-(trifluoromethyl)phenyl]pyrazol-4-yl]-1H-indol-3-yl)ethanediamide]
200 to 1000 nM | O=C(Nc1c[nH]c2ccc(-c3cnn(-c4ccc(C(F)(F)F)cc4)c3)cc12)C(=O)NC1COC1 [Compound 102, N^1-(oxetan-3-yl)-N^2-(5-(1-(4-(trifluoromethyl)phenyl)-1H-pyrazol-4-yl)-1H-indol-3-yl)oxalamide]
200 to 1000 nM | CCc1ccc(-n2cc(-c3ccc4[nH]cc(NC(=O)C(=O)NCCC(F)(F)F)c4c3)cn2)cc1 [Compound 103, N′-{5-[1-(4-ethylphenyl)-1H-pyrazol-4-yl]-1H-indol-3-yl}-N-(3,3,3-trifluoropropyl)ethanediamide]
200 to 1000 nM | CCc1ccc(-n2cc(-c3ccc4[nH]cc(NC(=O)C(=O)NC5CCCC5)c4c3)cn2)cc1 [Compound 104, N′-cyclopentyl-N-{5-[1-(4-ethylphenyl)-1H-pyrazol-4-yl]-1H-indol-3-yl}ethanediamide]
200 to 1000 nM | CCc1ccc(-n2cc(-c3ccc4[nH]cc(NC(=O)C(=O)NCC5CC5)c4c3)cn2)cc1 [Compound 105, N-(cyclopropylmethyl)-N′-{5-[1-(4-ethylphenyl)-1H-pyrazol-4-yl]-1H-indol-3-yl}ethanediamide]
200 to 1000 nM | CCc1ccc(-n2cc(-c3ccc4[nH]cc(NC(=O)C(=O)NCC5CCCC5)c4c3)cn2)cc1 [Compound 106, N′-(cyclopentylmethyl)-N-{5-[1-(4-ethylphenyl)-1H-pyrazol-4-yl]-1H-indol-3-yl}ethanediamide]
200 to 1000 nM | CCc1ccc(-n2cc(-c3ccc4[nH]cc(NC(=O)C(=O)N5CCC5)c4c3)cn2)cc1 [Compound 107, 2-(azetidin-1-yl)-N-{5-[1-(4-ethylphenyl)-1H-pyrazol-4-yl]-1H-indol-3-yl}-2-oxoacetamide]
200 to 1000 nM | CCc1ccc(-n2cc(-c3ccc4[nH]cc(NC(=O)C(=O)NC5CCOC5)c4c3)cn2)cc1 (stereo not drawn) [Compound 108, N-{5-[1-(4-ethylphenyl)-1H-pyrazol-4-yl]-1H-indol-3-yl}-N′-(oxolan-3-yl)ethanediamide]
200 to 1000 nM | CCc1ccc(-n2cc(-c3ccc4[nH]cc(NC(=O)C(=O)N[C@H]5C[C@H](OC)C5)c4c3)cn2)cc1 [Compound 109, N′-{5-[1-(4-ethylphenyl)-1H-pyrazol-4-yl]-1H-indol-3-yl}-N-[(1r,3r)-3-methoxycyclobutyl]ethanediamide]
200 to 1000 nM | CCc1ccc(-n2cc(-c3ccc4[nH]cc(NC(=O)C(=O)NC(C)C)c4c3)cn2)cc1 [Compound 110, N′-{5-[1-(4-ethylphenyl)-1H-pyrazol-4-yl]-1H-indol-3-yl}-N-(propan-2-yl)ethanediamide]
200 to 1000 nM | CCc1ccc(-n2cc(-c3ccc4[nH]cc(NC(=O)C(=O)N5CCN(C(C)=O)CC5)c4c3)cn2)cc1 [Compound 111, 2-(4-acetylpiperazin-1-yl)-N-{5-[1-(4-ethylphenyl)-1H-pyrazol-4-yl]-1H-indol-3-yl}-2-oxoacetamide]
200 to 1000 nM | CCc1ccc(-n2cc(-c3ccc4[nH]cc(NC(=O)C(=O)N(C)C)c4c3)cn2)cc1 [Compound 112, N′-{5-[1-(4-ethylphenyl)-1H-pyrazol-4-yl]-1H-indol-3-yl}-N,N-dimethylethanediamide]
200 to 1000 nM | CCc1ccc(-n2cc(-c3ccc4[nH]cc(NC(=O)C(=O)NC5CCC5)c4c3)cn2)cc1 [Compound 113, N-cyclobutyl-N′-{5-[1-(4-ethylphenyl)-1H-pyrazol-4-yl]-1H-indol-3-yl}ethanediamide]
200 to 1000 nM | CCc1ccc(-n2cc(-c3ccc4[nH]cc(NC(=O)C(=O)NCC(F)(F)F)c4c3)cn2)cc1 [Compound 114, N1-(5-(1-(4-ethylphenyl)-1H-pyrazol-4-yl)-1H-indol-3-yl)-N^2-(2,2,2-trifluoroethyl)oxalamide]
200 to 1000 nM | CCc1ccc(-n2cc(-c3ccc4[nH]cc(NC(=O)C(=O)N5CCCC5)c4c3)cn2)cc1 [Compound 115, N-{5-[1-(4-ethylphenyl)-1H-pyrazol-4-yl]-1H-indol-3-yl}-2-oxo-2-(pyrrolidin-1-yl)acetamide]
200 to 1000 nM | CCc1ccc(-n2cc(-c3ccc4[nH]cc(NC(=O)C(=O)NCC(F)F)c4c3)cn2)cc1 [Compound 116, N-(2,2-difluoroethyl)-N′-{5-[1-(4-ethylphenyl)-1H-pyrazol-4-yl]-1H-indol-3-yl}ethanediamide]
5000 to 100000 nM | CNC(=O)C(=O)Nc1c[nH]c2ccc(-c3cccc(C4CC4)c3)cc12 [Compound 117, N^1-(5-(3-cyclopropylphenyl)-1H-indol-3-yl)-N^2-methyloxalamide]
200 to 1000 nM | CNC(=O)C(=O)Nc1c[nH]c2ccc(-c3cnn(-c4ccc(C(F)(F)F)cc4)c3)cc12 [Compound 118, N^1-methyl-N^2-(5-(1-(4-(trifluoromethyl)phenyl)-1H-pyrazol-4-yl)-1H-indol-3-yl)oxalamide]
1000 to 5000 nM | CNC(=O)C(=O)Nc1c[nH]c2ccc(-c3cnn(-c4cccc(Cl)c4)c3)cc12 [Compound 119, N^1-(5-(1-(3-chlorophenyl)-1H-pyrazol-4-yl)-1H-indol-3-yl)-N^2-methyloxalamide]
200 to 1000 nM | CCc1ccc(-n2cc(-c3ccc4[nH]cc(NC(=O)C(=O)NCCOC)c4c3)cn2)cc1 [Compound 120, N′-{5-[1-(4-ethylphenyl)-1H-pyrazol-4-yl]-1H-indol-3-yl}-N-(2-methoxyethyl)ethanediamide]
1000 to 5000 nM | CNC(=O)C(=O)Nc1c[nH]c2ccc(-c3cnn(-c4ccccc4Cl)c3)cc12 [Compound 121, N^1-(5-(1-(2-chlorophenyl)-1H-pyrazol-4-yl)-1H-indol-3-yl)-N^2-methyloxalamide]
5000 to 100000 nM | CNC(=O)C(=O)Nc1c[nH]c2ccc(-c3cnn(C4CCCC4)c3)cc12 [Compound 122, N^1-(5-(1-cyclopentyl-1H-pyrazol-4-yl)-1H-indol-3-yl)-N^2-methyloxalamide]
200 to 1000 nM | CCc1ccc(-n2cc(-c3ccc4[nH]cc(NC(=O)C(=O)NC)c4c3)cn2)cc1 [Compound 123, N′-[5-[1-(4-ethylphenyl)pyrazol-4-yl]-1H-indol-3-yl]-N-methylethanediamide]
200 to 1000 nM | CCc1ccc(-n2cc(-c3ccc4[nH]cc(NC(=O)C(N)=O)c4c3)cn2)cc1 [Compound 124, N^1-(5-(1-(4-ethylphenyl)-1H-pyrazol-4-yl)-1H-indol-3-yl)oxalamide]
